Measured values: patent US9365522B2, “Pyrazole amide derivative” (AMGEN INC., priority 2015, dated 2016)

Molecular target: T1, ligand binding domain of human ROR gamma (Homo sapiens, UniProt P51449)
T1 construct: NM_001001523; expressed in transfected cells; host or cells: HEK293T
T1 sequence (P51449 247-497 isoform P51449-2): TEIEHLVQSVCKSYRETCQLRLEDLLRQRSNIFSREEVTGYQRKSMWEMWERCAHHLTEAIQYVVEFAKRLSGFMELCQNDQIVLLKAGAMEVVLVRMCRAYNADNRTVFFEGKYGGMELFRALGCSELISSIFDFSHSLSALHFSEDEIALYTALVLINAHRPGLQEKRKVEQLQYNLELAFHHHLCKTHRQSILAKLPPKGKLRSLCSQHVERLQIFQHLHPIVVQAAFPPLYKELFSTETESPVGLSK
Assay: ROR gamma reporter gene assay (GAL4-RORγ LBD luciferase, Dual-Glo)
Assay type: cell-based
Conditions: HEK293T cells transfected with pM-ROR gamma, 8 concentrations 3.5 nM to 10.5 μM, 24 h incubation; read-out: result (pIC50, inhibition of RORγ transcriptional activity) (converted)
Method in brief: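 Transient GAL4-RORγ LBD (aa 247-497) / 5×UAS-luc / pRL-CMV cotransfection in HEK293T, charcoal-stripped 10% FBS. 8-pt dose, 3.5 nM–10.5 μM, 0.075% DMSO final. 24 h, 37 °C, 5% CO2. Dual-Glo firefly/renilla readout; pIC50 from curve fit.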

IC50	Compound
≥ 1.05e+07 pM	CC(C)(C)CN(C[C@H](O)c1ncccc1Cl)C(=O)c1cnn([C@H]2CC[C@](C)(C(=O)O)CC2)c1C(F)(F)F (stereo in doubt) [Example 402, trans-4-(4-((2-(3-chloropyridin-2-yl)-2-hydroxyethyl)-(2,2-dimethylpropyl)carbamoyl)-5-(trifluoromethyl)pyrazol-1-yl)-1-methylcyclohexane-1-carboxylic acid]
83200 pM	O=C(CN(Cc1cc(F)cc(F)c1)C(=O)c1cnn([C@H]2CC[C@H](C(=O)O)CC2)c1C(F)(F)F)c1c(Cl)cc(C2CC2)cc1Cl [Example 66, trans-4-(4-((2-(2,6-dichloro-4-cyclopropylphenyl)-oxoethyl)(3,5-difluorobenzyl)carbamoyl)-5-(trifluoromethyl)-1H-pyrazol-1-yl)cyclohexanecarboxylic acid]
1.2e+06 pM	CC1(C)CCC(N(CC(O)c2c(Cl)cc(F)cc2Cl)C(=O)c2cnn([C@H]3CC[C@](C)(C(=O)O)CC3)c2C(F)(F)F)CC1 (single isomer, unassigned) [Example 361, trans-4-(4-(((2R)-2-(2,6-dichloro-4-fluorophenyl)-2-hydroxyethyl)-(4,4-dimethylcyclohexyl)carbamoyl)-5-(trifluoromethyl)pyrazol-1-yl)-1-methylcyclohexane-1-carboxylic acid or trans-4-(4-(((2S)-2-(2,6-dichloro-4-fluorophenyl)-2-hydroxyethyl)-(4,4-dimethylcyclohexyl)carbamoyl)-5-(trifluoromethyl)pyrazol-1-yl)-1-methylcyclohexane-1-carboxylic acid]
40700 pM	O=C(CN(CC12CCC(CC1)O2)C(=O)c1cnn([C@H]2CC[C@H](C(=O)O)CC2)c1C(F)(F)F)c1c(Cl)cncc1Cl [Example 262, trans-4-(4-((2-(3,5-dichloropyridin-4-yl)-2-oxoethyl)-(7-oxabicyclo[2.2.1]heptan-4-ylmethyl)carbamoyl)-5-(trifluoromethyl)pyrazol-1-yl)cyclohexane-1-carboxylic acid]
224000 pM	CC(C1CCCC1)N(CC(=O)c1c(Cl)cncc1Cl)C(=O)c1cnn([C@H]2CC[C@H](C(=O)O)CC2)c1C(F)(F)F (stereo partly drawn) [Example 187, trans-4-(4-(1-cyclopentylethyl-(2-(3,5-dichloropyridin-4-yl)-2-oxoethyl)carbamoyl)-5-(trifluoromethyl)pyrazol-1-yl)cyclohexane-1-carboxylic acid]
2.82e+06 pM	O=C(CN(Cc1cc(F)cc(F)c1)C(=O)c1cnn([C@H]2CC[C@H](C(=O)O)CC2)c1C(F)(F)F)c1cc(Cl)ccc1Cl [Example 107, trans-4-(4-((2-(2,5-dichlorophenyl)-2-oxoethyl)-((3,5-difluorophenyl)methyl)carbamoyl)-5-(trifluoromethyl)pyrazol-1-yl)cyclohexane-1-carboxylic acid]
26300 pM	Cc1cc(Cl)c(C(=O)CN(CC(C)(C)C)C(=O)c2cnn([C@H]3CC[C@](C)(C(=O)O)CC3)c2Cl)c(Cl)c1 [Example 359, trans-4-(5-chloro-4-((2-(2,6-dichloro-4-methylphenyl)-2-oxoethyl)-(2,2-dimethylpropyl)carbarnoyl)pyrazol-1-yl)-1-methylcyclohexane-1-carboxylic acid]
8320 pM	CC12CCC(CN(CC(=O)c3c(Cl)cc(F)cc3Cl)C(=O)c3cnn([C@H]4CC[C@](C)(C(=O)O)CC4)c3C(F)(F)F)(CC1)C2 [Example 274, trans-4-(4-((2-(2,6-dichloro-4-fluorophenyl)-2-oxoethyl)-((1-methyl-4-bicyclo[2.2.1]heptanyl)methyl)carbamoyl)-5-(trifluoromethyl)pyrazol-1-yl)-1-methylcyclohexane-1-carboxylic acid]
1.58e+06 pM	CC(C)(C)OC1CC(CN(CC(=O)c2c(Cl)cncc2Cl)C(=O)c2cnn([C@H]3CC[C@](C)(C(=O)O)CC3)c2C(F)(F)F)C1 (stereo partly drawn) [Example 344, trans-4-(4-((2-(3,5-dichloropyridin-4-yl)-2-oxoethyl)-((3-((2-methylpropan-2-yl)oxy)cyclobutyl)methyl)carbamoyl)-5-(trifluoromethyl)pyrazol-1-yl)-1-methylcyclohexane-1-carboxylic acid]
74100 pM	CC1(CN(CC(=O)c2c(Cl)cncc2Cl)C(=O)c2cnn([C@H]3CC[C@H](C(=O)O)CC3)c2C(F)(F)F)CCCCC1 [Example 102, trans-4-(4-((2-(3,5-dichloropyridin-4-yl)-2-oxoethyl)-((1-methylcyclohexyl)methyl)carbamoyl)-5-(trifluoromethyl)pyrazol-1-yl)cyclohexane-1-carboxylic acid]
324000 pM	CC(C)(C)[C@H]1C[C@H](CN(CC(=O)c2c(Cl)cncc2Cl)C(=O)c2cnn([C@H]3CC[C@H](C(=O)O)CC3)c2C(F)(F)F)C1 [Example 125, trans-4-(4-((3-tert-butylcyclobutyl)methyl-(2-(3,5-dichloropyridin-4-yl)-2-oxoethyl)carbamoyl)-5-(trifluoromethyl)pyrazol-1-yl)cyclohexane-1-carboxylic acid]
1.02e+06 pM	CC[C@]1(C(=O)O)CC[C@H](n2ncc(C(=O)N(CC(=O)c3c(Cl)cncc3Cl)Cc3cc(F)cc(F)c3)c2C(F)(F)F)CC1 [Example 156, trans-4-(4-((2-(3,5-dichloropyridin-4-yl)-2-oxoethyl)-((3,5-difluorophenyl)methyl)carbamoyl)-5-(trifluoromethyl)pyrazol-1-yl)-1-ethylcyclohexane-1-carboxylic acid]
55000 pM	COc1cncc(Cl)c1C(=O)CN(CC(C)(C)C)C(=O)c1cnn([C@H]2CC[C@](C)(C(=O)O)CC2)c1C(F)(F)F [Example 315, trans-4-(4-((2-(3-chloro-5-methoxypyridin-4-yl)-2-oxoethyl)-(2,2-dimethylpropyl)carbamoyl)-5-(trifluoromethyl)pyrazol-1-yl)-1-methylcyclohexane-1-carboxylic acid]

The remaining lines, values behind:

Compound	IC50
Cc1cc(C)c(C(=O)CN(Cc2cc(F)cc(F)c2)C(=O)c2cnn([C@H]3CC[C@H](C(=O)O)CC3)c2C(F)(F)F)c(Cl)c1 [Example 269, trans-4-(4-((2-(2-chloro-4,6-dimethylphenyl)-2-oxoethyl)-((3,5-difluorophenyl)methyl)carbamoyl)-5-(trifluoromethyl)pyrazol-1-yl)cyclohexane-1-carboxylic acid]	8130 pM
O=C(CN(Cc1cc(F)cc(F)c1)C(=O)c1cnn([C@H]2CC[C@H](C(=O)O)CC2)c1C(F)(F)F)c1c(O)cccc1Cl [Example 15, trans-4-(4-((2-(2-chloro-6-hydroxyphenyl)-2-oxoethyl)(3,5-difluorobenzyl)carbamoyl)-5-(trifluoromethyl)-1H-pyrazol-1-yl)cyclohexanecarboxylic acid]	95500 pM
CC(C)(C)CN(CC(=O)c1c(Cl)cccc1Cl)C(=O)c1cnn(C23CCC(C(=O)O)(CC2)CC3)c1C(F)(F)F [Example 317, 4-(4-((2-(2,6-dichlorophenyl)-2-oxoethyl)-(2,2-dimethylpropyl)carbamoyl)-5-(trifluoromethyl)pyrazol-1-yl)bicyclo[2.2.2]octane-1-carboxylic acid]	10000 pM
N#Cc1ccc(CN(CC(=O)c2c(Cl)cncc2Cl)C(=O)c2cnn([C@H]3CC[C@H](C(=O)O)CC3)c2C(F)(F)F)cc1 [Example 171, trans-4-(4-((4-cyanophenyl)methyl-(2-(3,5-dichloropyridin-4-yl)-2-oxoethyl)carbamoyl)-5-(trifluoromethyl)pyrazol-1-yl)cyclohexane-1-carboxylic acid]	166000 pM
O=C(CN(Cc1ccccn1)C(=O)c1cnn([C@H]2CC[C@H](C(=O)O)CC2)c1C(F)(F)F)c1c(Cl)cncc1Cl [Example 103, trans-4-(4-((2-(3,5-dichloropyridin-4-yl)-2-oxoethyl)-(pyridin-2-ylmethyl)carbamoyl)-5-(trifluorornethyl)pyrazol-1-yl)cyclohexane-1-carboxylic acid]	1.91e+06 pM
O=C(CN(Cc1ccc(F)cc1)C(=O)c1cnn([C@H]2CCC(C(=O)O)C2)c1C(F)(F)F)c1c(Cl)cncc1Cl (stereo in doubt) [Example 93, (1S,3S)-3-(4-((2-(3,5-dichloropyridin-4-yl)-2-oxoethyl)-((4-fluorophenyl)methyl)carbamoyl)-5-(trifluoromethyl)pyrazol-1-yl)cyclopentane-1-carboxylic acid]	575000 pM
CC(C)=CCN(CC(=O)c1c(Cl)cncc1Cl)C(=O)c1cnn([C@H]2CC[C@H](C(=O)O)CC2)c1C(F)(F)F [Example 35, trans-4-(4-((2-(3,5-dichloropyridin-4-yl)-2-oxoethyl)(3-methylbut-2-en-1-yl)carbamoyl)-5-(trifluoromethyl)-1H-pyrazol-1-yl)cyclohexanecarboxyic acid]	112000 pM
O=C(CN(Cc1cc(F)cc(F)c1)C(=O)c1cnn([C@H]2CC[C@H](C(=O)O)CC2)c1C(F)(F)F)c1cc(F)cc(F)c1 [Example 60, trans-4-(4-((3,5-difluorobenzyl)(2-(3,5-difluorophenyl)-2-oxoethyl)carbamoyl)-5-(trifluoromethyl)-1H-pyrazol-1-yl)cyclohexanecarboxylic acid]	> 1e+07 pM
CCC(F)(CC)CN(CC(=O)c1c(Cl)cncc1Cl)C(=O)c1cnn([C@H]2CC[C@](C)(C(=O)O)CC2)c1Cl [Example 395, trans-4-(5-chloro-4-((2-(3,5-dichloropyridin-4-yl)-2-oxoethyl)-(2-ethyl-2-fluorobutyl)carbamoyl)pyrazol-1-yl)-1-methylcyclohexane-1-carboxylic acid]	91200 pM
